Reference: the supplement of paper PMC10307832

Key:
Assay in all cases: relative viability (nuclei count vs DMSO), 5 days (fraction); higher = more cells survive
Ponatinib + Alpelisib = compound: Cc1ccc(C(=O)Nc2ccc(CN3CCN(C)CC3)c(C(F)(F)F)c2)cc1C#Cc1cnc2cccnn12 [Ponatinib] + Cc1nc(NC(=O)N2CCC[C@H]2C(N)=O)sc1-c1ccnc(C(C)(C)C(F)(F)F)c1 [Alpelisib] (partner 2 µM)
In short: (§1)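 Lung cancer cell lines in 1536-well plates got either a single drug or a fixed anchor-drug dose together with five library-drug doses (not always all listed) in √10 steps, by pin tool, on the day after seeding. Nuclei were counted after 5 days, and relative viability is the treated-to-vehicle ratio of nuclei counts. Values are medians of duplicate plates.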

Ponatinib + Olaparib = compound: Cc1ccc(C(=O)Nc2ccc(CN3CCN(C)CC3)c(C(F)(F)F)c2)cc1C#Cc1cnc2cccnn12 [Ponatinib] + O=C(c1cc(Cc2n[nH]c(=O)c3ccccc23)ccc1F)N1CCN(C(=O)C2CC2)CC1 [Olaparib] (partner 8 µM)
In short: as §1

Pazopanib + Bortezomib = compound: Cc1ccc(Nc2nccc(N(C)c3ccc4c(C)n(C)nc4c3)n2)cc1S(N)(=O)=O [Pazopanib] + CC(C)C[C@H](NC(=O)[C@H](Cc1ccccc1)NC(=O)c1cnccn1)B(O)O [Bortezomib] (partner 0.002 µM)
In short: as §1

Pazopanib + Linsitinib = compound: Cc1ccc(Nc2nccc(N(C)c3ccc4c(C)n(C)nc4c3)n2)cc1S(N)(=O)=O [Pazopanib] + C[C@]1(O)C[C@@H](c2nc(-c3ccc4ccc(-c5ccccc5)nc4c3)c3c(N)nccn32)C1 [Linsitinib] (partner 1 µM)
In short: as §1

With BEN the relative viability (Ponatinib + Alpelisib; first compound 0.002 µM) was 0.948, the relative viability (Ponatinib + Alpelisib; first compound 0.006325 µM) was 0.977 and the relative viability (Ponatinib + Alpelisib; first compound 0.06325 µM) was 1.08. It also gave a relative viability (Ponatinib + Alpelisib; first compound 0.2 µM) of 0.916, a relative viability (Ponatinib + Olaparib; first compound 0.002 µM) of 1.06 and a relative viability (Ponatinib + Olaparib; first compound 0.006325 µM) of 1.18. The relative viability (Ponatinib + Olaparib; first compound 0.06325 µM) was 1.13, the relative viability (Ponatinib + Olaparib; first compound 0.2 µM) was 0.92 and the relative viability (Pazopanib + Bortezomib; first compound 0.01 µM) was 0.581. The relative viability (Pazopanib + Bortezomib; first compound 0.03162 µM) was 0.725, the relative viability (Pazopanib + Bortezomib; first compound 0.1 µM) was 0.76 and the relative viability (Pazopanib + Bortezomib; first compound 0.3162 µM) was 0.917. The relative viability (Pazopanib + Bortezomib; first compound 1 µM) was 0.874, the relative viability (Pazopanib + Linsitinib; first compound 0.01 µM) was 0.819 and the relative viability (Pazopanib + Linsitinib; first compound 0.03162 µM) was 0.969. It also gave a relative viability (Pazopanib + Linsitinib; first compound 0.1 µM) of 0.894, a relative viability (Pazopanib + Linsitinib; first compound 0.3162 µM) of 0.956 and a relative viability (Pazopanib + Linsitinib; first compound 1 µM) of 0.898.
Work on NCI-H1666 yielded a relative viability (Ponatinib + Alpelisib; first compound 0.002 µM) of 0.864, a relative viability (Ponatinib + Alpelisib; first compound 0.006325 µM) of 1.04 and a relative viability (Ponatinib + Alpelisib; first compound 0.06325 µM) of 1.05. For the same cell line, the relative viability (Ponatinib + Alpelisib; first compound 0.2 µM) was 1.07, the relative viability (Ponatinib + Olaparib; first compound 0.002 µM) was 0.749 and the relative viability (Ponatinib + Olaparib; first compound 0.006325 µM) was 0.76. It also gave a relative viability (Ponatinib + Olaparib; first compound 0.06325 µM) of 0.733, a relative viability (Ponatinib + Olaparib; first compound 0.2 µM) of 0.664 and a relative viability (Pazopanib + Bortezomib; first compound 0.01 µM) of 0.707. For the same cell line, the relative viability (Pazopanib + Bortezomib; first compound 0.03162 µM) was 0.829, the relative viability (Pazopanib + Bortezomib; first compound 0.1 µM) was 0.77 and the relative viability (Pazopanib + Bortezomib; first compound 0.3162 µM) was 1.01. For the same cell line, the relative viability (Pazopanib + Bortezomib; first compound 1 µM) was 1.35, the relative viability (Pazopanib + Linsitinib; first compound 0.01 µM) was 1.15 and the relative viability (Pazopanib + Linsitinib; first compound 0.03162 µM) was 0.857. For the same cell line, the relative viability (Pazopanib + Linsitinib; first compound 0.1 µM) was 0.909, the relative viability (Pazopanib + Linsitinib; first compound 0.3162 µM) was 0.767 and the relative viability (Pazopanib + Linsitinib; first compound 1 µM) was 1.07.
In the case of LC-2-ad, the relative viability (Ponatinib + Alpelisib; first compound 0.002 µM) is reported as 0.832, the relative viability (Ponatinib + Alpelisib; first compound 0.006325 µM) is reported as 0.792 and the relative viability (Ponatinib + Alpelisib; first compound 0.06325 µM) is reported as 0.648. For the same cell line, the relative viability (Ponatinib + Alpelisib; first compound 0.2 µM) was 0.552, the relative viability (Ponatinib + Olaparib; first compound 0.002 µM) was 0.764 and the relative viability (Ponatinib + Olaparib; first compound 0.006325 µM) was 0.762. For the same cell line, the relative viability (Ponatinib + Olaparib; first compound 0.06325 µM) was 0.781, the relative viability (Ponatinib + Olaparib; first compound 0.2 µM) was 0.713 and the relative viability (Pazopanib + Bortezomib; first compound 0.01 µM) was 0.977. The relative viability (Pazopanib + Bortezomib; first compound 0.03162 µM) was 1.08, the relative viability (Pazopanib + Bortezomib; first compound 0.1 µM) was 1.02 and the relative viability (Pazopanib + Bortezomib; first compound 0.3162 µM) was 0.956. For the same cell line, the relative viability (Pazopanib + Bortezomib; first compound 1 µM) was 1.12, the relative viability (Pazopanib + Linsitinib; first compound 0.01 µM) was 0.813 and the relative viability (Pazopanib + Linsitinib; first compound 0.03162 µM) was 0.778. For the same cell line, the relative viability (Pazopanib + Linsitinib; first compound 0.1 µM) was 0.868, the relative viability (Pazopanib + Linsitinib; first compound 0.3162 µM) was 0.8 and the relative viability (Pazopanib + Linsitinib; first compound 1 µM) was 0.842.
Cell Line SW 1573 has a relative viability (Ponatinib + Alpelisib; first compound 0.002 µM) of 0.788, a relative viability (Ponatinib + Alpelisib; first compound 0.006325 µM) of 0.716 and a relative viability (Ponatinib + Alpelisib; first compound 0.06325 µM) of 0.857. The relative viability (Ponatinib + Alpelisib; first compound 0.2 µM) was 0.693, the relative viability (Ponatinib + Olaparib; first compound 0.002 µM) was 0.591 and the relative viability (Ponatinib + Olaparib; first compound 0.006325 µM) was 0.519. The relative viability (Ponatinib + Olaparib; first compound 0.06325 µM) was 0.496, the relative viability (Ponatinib + Olaparib; first compound 0.2 µM) was 0.408 and the relative viability (Pazopanib + Bortezomib; first compound 0.01 µM) was 0.945. The relative viability (Pazopanib + Bortezomib; first compound 0.03162 µM) was 1.14, the relative viability (Pazopanib + Bortezomib; first compound 0.1 µM) was 1.08 and the relative viability (Pazopanib + Bortezomib; first compound 0.3162 µM) was 1.09. The relative viability (Pazopanib + Bortezomib; first compound 1 µM) was 1.17, the relative viability (Pazopanib + Linsitinib; first compound 0.01 µM) was 0.716 and the relative viability (Pazopanib + Linsitinib; first compound 0.03162 µM) was 0.798. For the same cell line, the relative viability (Pazopanib + Linsitinib; first compound 0.1 µM) was 0.817, the relative viability (Pazopanib + Linsitinib; first compound 0.3162 µM) was 0.935 and the relative viability (Pazopanib + Linsitinib; first compound 1 µM) was 1.01.
ChaGo-K-1 was tested, and the relative viability (Ponatinib + Olaparib; first compound 0.002 µM) was 0.438, the relative viability (Ponatinib + Olaparib; first compound 0.006325 µM) was 0.486 and the relative viability (Ponatinib + Olaparib; first compound 0.06325 µM) was 0.41. It also gave a relative viability (Ponatinib + Olaparib; first compound 0.2 µM) of 0.436, a relative viability (Pazopanib + Bortezomib; first compound 0.01 µM) of 1.12 and a relative viability (Pazopanib + Bortezomib; first compound 0.03162 µM) of 1.1. The relative viability (Pazopanib + Bortezomib; first compound 0.1 µM) was 0.952, the relative viability (Pazopanib + Bortezomib; first compound 0.3162 µM) was 0.91 and the relative viability (Pazopanib + Bortezomib; first compound 1 µM) was 0.951.
In the case of SK-MES-1, the relative viability (Ponatinib + Alpelisib; first compound 0.002 µM) is reported as 0.981, the relative viability (Ponatinib + Alpelisib; first compound 0.006325 µM) is reported as 0.949 and the relative viability (Ponatinib + Alpelisib; first compound 0.06325 µM) is reported as 1.32. For the same cell line, the relative viability (Ponatinib + Alpelisib; first compound 0.2 µM) was 1.05, the relative viability (Ponatinib + Olaparib; first compound 0.002 µM) was 0.765 and the relative viability (Ponatinib + Olaparib; first compound 0.006325 µM) was 0.819. It also gave a relative viability (Ponatinib + Olaparib; first compound 0.06325 µM) of 0.857, a relative viability (Ponatinib + Olaparib; first compound 0.2 µM) of 0.769 and a relative viability (Pazopanib + Linsitinib; first compound 0.01 µM) of 0.983. The relative viability (Pazopanib + Linsitinib; first compound 0.03162 µM) was 1.01, the relative viability (Pazopanib + Linsitinib; first compound 0.1 µM) was 1.12 and the relative viability (Pazopanib + Linsitinib; first compound 0.3162 µM) was 1.15. For the same cell line, the relative viability (Pazopanib + Linsitinib; first compound 1 µM) was 1.02.
NCI-H2170 was tested, and the relative viability (Ponatinib + Alpelisib; first compound 0.002 µM) was 0.804, the relative viability (Ponatinib + Alpelisib; first compound 0.006325 µM) was 0.843 and the relative viability (Ponatinib + Alpelisib; first compound 0.06325 µM) was 0.892. For the same cell line, the relative viability (Ponatinib + Alpelisib; first compound 0.2 µM) was 0.811, the relative viability (Ponatinib + Olaparib; first compound 0.002 µM) was 0.583 and the relative viability (Ponatinib + Olaparib; first compound 0.006325 µM) was 0.599. It also gave a relative viability (Ponatinib + Olaparib; first compound 0.06325 µM) of 0.631 and a relative viability (Ponatinib + Olaparib; first compound 0.2 µM) of 0.639.
Cell Line NCI-H1648 has a relative viability (Ponatinib + Olaparib; first compound 0.002 µM) of 0.49, a relative viability (Ponatinib + Olaparib; first compound 0.006325 µM) of 0.897 and a relative viability (Ponatinib + Olaparib; first compound 0.06325 µM) of 0.572. It also gave a relative viability (Ponatinib + Olaparib; first compound 0.2 µM) of 0.51.
Cell Line NCI-H2342 has a relative viability (Ponatinib + Olaparib; first compound 0.002 µM) of 0.473, a relative viability (Ponatinib + Olaparib; first compound 0.006325 µM) of 0.483 and a relative viability (Ponatinib + Olaparib; first compound 0.06325 µM) of 0.424. For the same cell line, the relative viability (Ponatinib + Olaparib; first compound 0.2 µM) was 0.467.
Cell Line NCI-H1395 has a relative viability (Ponatinib + Alpelisib; first compound 0.006325 µM) of 1.03, a relative viability (Ponatinib + Alpelisib; first compound 0.06325 µM) of 1.09 and a relative viability (Ponatinib + Alpelisib; first compound 0.2 µM) of 0.804. The relative viability (Ponatinib + Olaparib; first compound 0.002 µM) was 0.446, the relative viability (Ponatinib + Olaparib; first compound 0.006325 µM) was 0.425 and the relative viability (Ponatinib + Olaparib; first compound 0.06325 µM) was 0.47. For the same cell line, the relative viability (Ponatinib + Olaparib; first compound 0.2 µM) was 0.433, the relative viability (Pazopanib + Linsitinib; first compound 0.01 µM) was 0.983 and the relative viability (Pazopanib + Linsitinib; first compound 0.03162 µM) was 1.27. The relative viability (Pazopanib + Linsitinib; first compound 0.1 µM) was 1.07, the relative viability (Pazopanib + Linsitinib; first compound 0.3162 µM) was 0.992 and the relative viability (Pazopanib + Linsitinib; first compound 1 µM) was 1.05.
In the case of NCI-H358, the relative viability (Ponatinib + Alpelisib; first compound 0.002 µM) is reported as 0.886, the relative viability (Ponatinib + Alpelisib; first compound 0.006325 µM) is reported as 0.95 and the relative viability (Ponatinib + Alpelisib; first compound 0.06325 µM) is reported as 0.942. The relative viability (Ponatinib + Alpelisib; first compound 0.2 µM) was 0.772, the relative viability (Ponatinib + Olaparib; first compound 0.002 µM) was 0.565 and the relative viability (Ponatinib + Olaparib; first compound 0.006325 µM) was 0.609. It also gave a relative viability (Ponatinib + Olaparib; first compound 0.06325 µM) of 0.648, a relative viability (Ponatinib + Olaparib; first compound 0.2 µM) of 0.49 and a relative viability (Pazopanib + Linsitinib; first compound 0.01 µM) of 0.875. For the same cell line, the relative viability (Pazopanib + Linsitinib; first compound 0.03162 µM) was 0.626, the relative viability (Pazopanib + Linsitinib; first compound 0.1 µM) was 0.82 and the relative viability (Pazopanib + Linsitinib; first compound 0.3162 µM) was 0.993. It also gave a relative viability (Pazopanib + Linsitinib; first compound 1 µM) of 0.821.
NCI-H1944 was tested, and the relative viability (Ponatinib + Alpelisib; first compound 0.002 µM) was 0.824, the relative viability (Ponatinib + Alpelisib; first compound 0.006325 µM) was 0.943 and the relative viability (Ponatinib + Alpelisib; first compound 0.06325 µM) was 1.1. The relative viability (Ponatinib + Alpelisib; first compound 0.2 µM) was 0.954, the relative viability (Ponatinib + Olaparib; first compound 0.002 µM) was 0.378 and the relative viability (Ponatinib + Olaparib; first compound 0.006325 µM) was 0.455. For the same cell line, the relative viability (Ponatinib + Olaparib; first compound 0.06325 µM) was 0.427, the relative viability (Ponatinib + Olaparib; first compound 0.2 µM) was 0.441 and the relative viability (Pazopanib + Linsitinib; first compound 0.01 µM) was 1.08. For the same cell line, the relative viability (Pazopanib + Linsitinib; first compound 0.03162 µM) was 1.28, the relative viability (Pazopanib + Linsitinib; first compound 0.1 µM) was 1.15 and the relative viability (Pazopanib + Linsitinib; first compound 0.3162 µM) was 1.24. The relative viability (Pazopanib + Linsitinib; first compound 1 µM) was 1.32.
